Data as given in the supplement of paper PMC4862054.

Tests used:
Assay in all cases: normalised response (% of control), CellTiter-Glo; higher = more viable cells (100 = DMSO, 0 = benzethonium chloride kill control)
Conditions in all cases: incubation time: 72 h
HDQ-P1 = tested on: HDQ-P1
In short: (§1)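 Plates were normalised with 0.1 % DMSO as 100 and a positive kill control as 0. Breast cancer cell lines in 20 µl suspension had been seeded into 384-well plates with compound at 5 concentrations in 10-fold steps over a compound-specific 10,000-fold range, incubated 72 h, and read for CellTox Green fluorescence (485/520 nm) followed by CellTiter-Glo luminescence. Each value is the normalised signal at a single concentration.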

MFM-223 = tested on: MFM-223
In short: as §1

MDA-MB-468 = tested on: MDA-MB-468
In short: as §1

BT-549 = tested on: BT-549
In short: as §1

Hs578T = tested on: Hs578T
In short: as §1

CAL-120 = tested on: CAL-120
In short: as §1

HCC1143 = tested on: HCC1143
In short: as §1

MCF-10A = tested on: MCF-10A
In short: as §1

BT-474 = tested on: BT-474
In short: as §1

MDA-MB-436 = tested on: MDA-MB-436
In short: as §1

CAL-85-1 = tested on: CAL-85-1
In short: as §1

MDA-MB-231 = tested on: MDA-MB-231
In short: as §1

HCC1937 = tested on: HCC1937
In short: as §1

DU-4475 = tested on: DU-4475
In short: as §1

SK-BR-3 = tested on: SK-BR-3
In short: as §1

CAL-51 = tested on: CAL-51
In short: as §1

MDA-MB-453 = tested on: MDA-MB-453
In short: as §1

HCC1599 = tested on: HCC1599
In short: as §1

CAL-148 = tested on: CAL-148
In short: as §1

Row | SMILES | normalised response (HDQ-P1) | normalised response (MFM-223) | normalised response (MDA-MB-468) | normalised response (BT-549) | normalised response (Hs578T) | normalised response (CAL-120) | normalised response (HCC1143) | normalised response (MCF-10A) | normalised response (BT-474) | normalised response (MDA-MB-436) | normalised response (CAL-85-1) | normalised response (MDA-MB-231) | normalised response (HCC1937) | normalised response (DU-4475) | normalised response (SK-BR-3) | normalised response (CAL-51) | normalised response (MDA-MB-453) | normalised response (HCC1599) | normalised response (CAL-148)
1 | C[C@]1(O)C[C@@H](c2nc(-c3ccc4ccc(-c5ccccc5)nc4c3)c3c(N)nccn32)C1 [Linsitinib] (1 nM) | 105% | 87.5% | 93.9% | 92.6% | 93.2% | 97.7% | 91.7% | 89.5% | 98.2% | 96.4% | 92.8% | 95.3% | 91.5% | 98% | 91.5% | 109% | 90.9% | 106% | 98%
2 | Cc1sc2c(c1C)C(c1ccc(Cl)cc1)=N[C@@H](CC(=O)OC(C)(C)C)c1nnc(C)n1-2 [(+)JQ1] (10 nM) | 101% | 108% | 98.3% | 96.2% | 98.1% | 94.8% | 105% | 107% | 108% | 113% | 101% | 110% | 94.5% | 104% |  | 107% | 111% | 104% | 116%
3 | CC(=O)c1c(C)c2cnc(Nc3ccc(N4CCNCC4)cn3)nc2n(C2CCCC2)c1=O [Palbociclib] (1 nM) | 90.1% | 90.3% | 91.9% | 100% | 95.7% | 95% | 88% | 89.3% | 89.6% | 101% | 97.8% | 91.6% | 101% | 97.8% | 86% | 118% | 99.2% | 96.1% | 88.4%
4 | COc1cc(F)c(F)c(Nc2ccc(I)cc2F)c1NS(=O)(=O)C1(C[C@H](O)CO)CC1 [Refametinib] (1 nM) | 92.8% | 94.4% | 92.7% | 98.6% | 92.9% | 101% | 93.6% | 79.4% | 91.2% | 91.6% | 97% | 100% | 93.6% | 104% | 91.2% | 75.2% | 87.9% | 99.5% | 101%
5 | CC1=C2C[C@H]3[C@@H](CC=C4C[C@@H](O)CC[C@@]43C)[C@@H]2CC[C@]12O[C@@H]1C[C@H](C)CN[C@H]1[C@H]2C [Cyclopamine] (10 nM) | 105% | 113% | 110% | 95.6% | 105% | 102% | 105% | 114% | 104% | 105% | 98% | 105% | 104% | 109% | 120% | 110% | 109% | 116% | 117%
6 | CC1(C)CCC(CN2CCN(c3ccc(C(=O)NS(=O)(=O)c4ccc(NCC5CCOCC5)c([N+](=O)[O-])c4)c(Oc4cnc5[nH]ccc5c4)c3)CC2)=C(c2ccc(Cl)cc2)C1 [ABT-199] (1 nM) | 101% | 96.8% | 94.1% | 98.9% | 104% | 98.9% | 98.6% | 98.3% | 94.8% | 98.5% | 99.5% | 97.4% | 106% | 98.2% | 95.4% | 122% | 101% | 89.5% | 100%
7 | CC(=O)c1c(C)c2cnc(Nc3ccc(N4CCNCC4)cn3)nc2n(C2CCCC2)c1=O [Palbociclib] (10 nM) | 97.9% | 91.2% | 92.4% | 100% | 100% | 95.2% | 94.5% | 97.3% | 97.2% | 95.4% | 92% | 92.1% | 101% | 97.2% | 89.5% | 115% | 93.6% | 107% | 87%
8 | CC(C)(C)c1cnc(CSc2cnc(NC(=O)C3CCNCC3)s2)o1 [SNS-032] (10 nM) | 92.1% | 97.2% | 96.7% | 95.1% | 102% | 96.6% | 89.7% | 105% | 93.4% | 101% | 109% | 96.5% | 97.8% | 99.2% | 95.8% | 65.3% | 99.6% | 107% | 98.5%
9 | Nc1ncn([C@@H]2O[C@H](CO)[C@@H](O)[C@H]2O)c(=O)n1 [Azacitidine] (10 nM) | 99.5% | 96.2% | 103% | 93.4% | 97.5% | 99.3% | 99.4% | 103% | 99.9% | 105% | 101% | 94.3% | 101% | 102% | 110% | 113% | 105% | 105% | 92%
10 | Nc1nc2[nH]cnc2c(=S)[nH]1 [Thioguanine] (10 nM) | 94.6% | 97.2% | 99.5% |  | 102% | 100% | 101% | 98.7% | 93.8% | 98.8% | 99.4% | 98.2% | 96.9% | 98.5% |  | 85.1% | 87.4% | 112% | 105%
11 | C[C@]12CC[C@@H]3c4ccc(OC(=O)N(CCCl)CCCl)cc4CC[C@H]3[C@@H]1CC[C@@H]2O [Estramustine] (10 nM) | 104% | 87.7% | 97.6% | 98.6% | 97% | 103% | 98.5% | 91.1% | 97% | 93.3% | 91.2% | 95.1% | 96% | 91.3% | 94.9% | 90.1% | 88.8% | 103% | 84.1%
12 | CC(=O)O[C@@]12CO[C@@H]1C[C@H](O)[C@@]1(C)C(=O)[C@H](O)C3=C(C)[C@@H](OC(=O)[C@H](O)[C@@H](NC(=O)OC(C)(C)C)c4ccccc4)C[C@@](O)([C@@H](OC(=O)c4ccccc4)[C@H]21)C3(C)C [Docetaxel] (1 nM) | 90% | 91.3% | 50.2% | 60.5% | 76.6% | 94.6% | 71.5% | 73.2% | 84.2% | 81.5% | 79.9% | 87.8% | 83.5% | 90.6% | 68.5% | 115% | 104% | 97.4% | 84.6%
13 | O=NN(CCCl)C(=O)NCCCl [Carmustine] (10 nM) | 94.8% | 102% | 102% | 100% | 105% | 98.9% | 105% | 96.6% | 93.8% | 98.4% | 95.6% | 91.9% | 101% | 101% |  | 128% | 114% | 97.9% | 93.3%
14 | Cn1cnc2c(F)c(Nc3ccc(Br)cc3Cl)c(C(=O)NOCCO)cc21 [Selumetinib] (10 nM) | 86.6% | 90.8% | 94.8% | 99.9% | 99.4% | 93% | 91% | 77.4% | 89.8% | 96.3% | 107% | 97.2% | 97.3% | 95.1% | 90.6% | 107% | 96.8% | 95% | 90.6%
15 | Oc1ncnc2[nH]ncc12 [Allopurinol] (10 nM) | 99.5% | 108% | 99% | 101% | 97.5% | 99% | 103% | 107% | 102% | 96.5% | 98.6% | 99.6% | 99.2% | 106% | 106% | 98.1% | 109% | 104% | 107%
16 | Cc1ccc([N+](=O)[O-])cc1S(=O)(=O)N(C)/N=C/c1cnc2ccc(Br)cn12 [PIK-75] (1 nM) | 98.8% | 92.2% | 94.9% | 99% | 97.9% | 92.4% | 93.8% | 95% | 89.6% | 88.9% | 92.2% | 92.9% | 94.7% | 95.6% | 99.6% | 73.8% | 100% | 108% | 96.4%
17 | COc1cc2c(cc1O)CC[C@@H]1[C@@H]2CC[C@]2(C)[C@@H](O)CC[C@@H]12 [2-methoxyestradiol] (10 nM) | 101% | 96.5% | 98.2% | 94% | 96.8% | 101% | 103% | 94.6% | 97.8% | 106% | 103% | 97.7% | 98.1% | 101% |  | 97.5% | 96.4% | 92.7% | 91.3%
18 | CC(=O)N(O)CCCCCNC(=O)CCC(=O)N(O)CCCCCNC(=O)CCC(=O)N(O)CCCCCN [Deferoxamine] (1 nM) | 105% | 94.7% | 91% | 104% | 100% | 106% | 95.1% | 99.2% | 94.6% | 101% | 93.2% | 91.8% | 93.7% | 95.6% | 94.8% | 108% | 94.8% | 120% | 91.9%
19 | CC1(C)CCC(CN2CCN(c3ccc(C(=O)NS(=O)(=O)c4ccc(NCC5CCOCC5)c([N+](=O)[O-])c4)c(Oc4cnc5[nH]ccc5c4)c3)CC2)=C(c2ccc(Cl)cc2)C1 [ABT-199] (10 nM) | 97.1% | 100% | 118% | 95.7% | 103% | 91.8% | 99.2% | 101% | 97.3% | 102% | 106% | 97.2% | 99.7% | 96.2% |  | 68.3% | 97.5% | 104% | 103%
